Laboratory results from patent publication US8648066B2 (Exelixis, Inc., priority 2009, dated 2014).

Biological target: mTOR/GbL/Raptor (mTORC1) (Homo sapiens, UniProt P42345)
Test: mTOR/GbL/Raptor (mTORC1) ELISA assay
Type: biochemical
Details: phosphorylation of 4E-BP1; 0.2 nM mTORC1, 10 μM ATP; read-out: IC50 in this assay (mTORC1 ELISA)
Description: The measurement of mTORC1 enzyme activity was performed in an ELISA assay format following the phosphorylation of 4E-BP1 protein. All experiments were performed in the 384-well format. Generally, 0.5 μL DMSO containing varying concentrations of the test Compound was mixed with 15 μL enzyme solution. Kinase reactions were initiated with the addition of 15 μL of substrates-containing solution. The assay conditions were as follows; 0.2 nM mTORC1, 10 μM ATP and 50 nM NHis-tagged 4E-BP1 in 20 mM Hepes, pH 7.2, 1 mM DTT, 50 mM NaCl, 10 mM MnCl2, 0.02 mg/mL BSA, 0.01% CHAPS, 50 mM β-glycerophosphate. Following an incubation of 120 minutes at ambient temperature, 20 μL of the reaction volume was transferred to a Ni-Chelate-coated 384-well plate. The binding step of the 4E-BP1 protein proceeded for 60 minutes, followed by washing 4 times each with 50 μL of Tris-buffered saline solution (TBS). Anti-phospho-4E-BP1 rabbit-IgG (20 μL, 1:5000) in 5% BSA-TBST (0.2% Tween-20 in TBS) was added and further incubated for 60 minutes. Incubation with a secondary HRP-tagged anti-IgG was similarly performed after washing off the primary antibody (4 washes of 50 μL). Following the final wash step with TBST, 20 μL of SuperSignal ELISA Femto (Pierce Biotechnology) was added and the luminescence measured using an EnVision plate reader.

IC50, 10 to 50 nM:
COc1cc2ncnc(N3CCOc4ccc(-c5ccc6nc(C)[nH]c6c5)cc4C3)c2cc1I [Example 37, 4-[6-iodo-7-(methyloxy)quinazolin-4-yl]-7-(2-methyl-1H-benzimidazol-6-yl)-2,3,4,5-tetrahydro-1,4-benzoxazepine]
COc1cc2ncnc(N3CCOc4ccc(-c5ccc6nc(C)[nH]c6c5)cc4C3)c2cc1Cl [Example 38, 4-[6-chloro-7-(methyloxy)quinazolin-4-yl]-7-(2-methyl-1H-benzimidazol-6-yl)-2,3,4,5-tetrahydro-1,4-benzoxazepine]

IC50, ≤ 10 nM:
Cc1nc2ccc(-c3ccc4c(c3)CN(c3ncnc(C)c3Cc3ccccc3)CCO4)cc2[nH]1 [Example 55, 7-(2-methyl-1H-benzimidazol-6-yl)-4-[6-methyl-5-(phenylmethyl)pyrimidin-4-yl]-2,3,4,5-tetrahydro-1,4-benzoxazepine]

IC50, 1000 to 2000 nM:
Cc1nc2ccc(-c3ccc4c(c3)CN(c3ncncc3C)CCO4)cc2[nH]1 [Example 44, 7-(2-methyl-1H-benzimidazol-6-yl)-4-(5-methylpyrimidin-4-yl)-2,3,4,5-tetrahydro-1,4-benzoxazepine]
Cc1nc2ccc(-c3ccc4c(c3)CN(c3ncnc(C)c3C)CCO4)cc2[nH]1 [Example 48, 4-(5,6-dimethylpyrimidin-4-yl)-7-(2-methyl-1H-benimidazol-6-yl)-2,3,4,5-tetrahydro-1,4-benzoxazepine]

IC50, 50 to 250 nM:
Cc1nc2ccc(-c3ccc4c(c3)CN(c3ncnc5c(Cl)cc(Cl)cc35)CCO4)cc2[nH]1 [Example 32, 4-(6,8-dichloroquinazolin-4-yl)-7-(2-methyl-1H-benzimidazol-6-yl)-2,3,4,5-tetrahydro-1,4-benzoxazepine]
COc1ccc2c(N3CCOc4ccc(-c5ccc6nc(C)[nH]c6c5)cc4C3)ncnc2c1OC [Example 34, 4-[7,8-bis(methyloxy)quinazolin-4-yl]-7-(2-methyl-1H-benzimidazol-6-yl)-2,3,4,5-tetrahydro-1,4-benzoxazepine]
Cc1nc2ccc(-c3ccc4c(c3)CN(c3ncnc5cc(Cl)c(I)cc35)CCO4)cc2[nH]1 [Example 35, 4-(7-chloro-6-iodoquinazolin-4-yl)-7-(2-methyl-1H-benzimidazol-6-yl)-2,3,4,5-tetrahydro-1,4-benzoxazepine]
Cc1nc2ccc(-c3ccc4c(c3)CN(c3ncnc5cc(C(F)(F)F)ccc35)CCO4)cc2[nH]1 [Example 36, 7-(2-methyl-1H-benzimidazol-6-yl)-4-[7-(trifluoromethyl)quinazolin-4-yl]-2,3,4,5-tetrahydro-1,4-benzoxazepine]
COc1c(OCc2ccccc2)ccc2c(N3CCOc4ccc(-c5ccc6nc(C)[nH]c6c5)cc4C3)ncnc12 [Example 39, 7-(2-methyl-1H-benzimidazol-6-yl)-4-{8-(methyloxy)-7-[(phenylmethyl)oxy]quinazolin-4-yl}-2,3,4,5-tetrahydro-1,4-benzoxazepine]
Cc1nc2ccc(-c3ccc4c(c3)CN(c3ncnc5cc(S(C)(=O)=O)ccc35)CCO4)cc2[nH]1 [Example 40, 7-(2-methyl-1H-benzimidazol-6-yl)-4-[7-(methylsulfonyl)quinazolin-4-yl]-2,3,4,5-tetrahydro-1,4-benzoxazepine]
COc1cc2ncnc(N3CCOc4ccc(-c5ccc6nc(C)[nH]c6c5)cc4C3)c2cc1Br [Example 43, 4-[6-bromo-7-(methyloxy)quinazlolin-4-yl]-7-(2-methyl-1H-benzimidazol-6-yl)-2,3,4,5-tetrahydro-1,4-benzoxazepine]
CSc1nc2c(c(N3CCOc4ccc(-c5ccc6nc(C)[nH]c6c5)cc4C3)n1)CCC2 [Example 49, 7-(2-methyl-1H-benzimidazol-6-yl)-4-[2-(methylthio)-6,7-dihydro-5H-cyclopenta[d]pyrimidin-4-yl]-2,3,4,5-tetrahydro-1,4-benzoxazepine]

IC50, 250 to 1000 nM:
COc1cc2c(N3CCOc4ccc(-c5ccc6nc(C)[nH]c6c5)cc4C3)ncnc2cc1OCc1ccccc1 [Example 10]
COc1cc2c(N3CCOc4ccc(-c5ccc6nc(C)[nH]c6c5)cc4C3)ncnc2cc1Br [Example 31, 4-[7-bromo-6-(methyloxy)quinazolin-4-yl]-7-(2-methyl-1H-benzimidazol-6-yl)-2,3,4,5-tetrahydro-1,4-benzoxazepine]
COc1ccc2nc(Cl)nc(N3CCOc4ccc(-c5ccc6nc(C)[nH]c6c5)cc4C3)c2c1 [Example 33, 4-[2-chloro-6-(methyloxy)quinazolin-4-yl]-7-(2-methyl-1H-benzimidazol-6-yl)-2,3,4,5-tetrahydro-1,4-benzoxazepine]
COc1c(Cl)cc2c(N3CCOc4ccc(-c5ccc6nc(C)[nH]c6c5)cc4C3)ncnc2c1OC [Example 42, 4-[6-chloro-7,8-bis(methyloxy)quinazolin-4-yl]-7-(2-methyl-1H-benzimidazol-6-yl)-2,3,4,5-tetrahydro-1,4-benzoxazepine]
Cc1nc2ccc(-c3ccc4c(c3)CN(c3ncnc5sccc35)CCO4)cc2[nH]1 [Example 45, 7-(2-methyl-1H-benzimidazol-6-yl)-4-thieno[2,3-d]pyrimidin-4-yl-2,3,4,5-tetrahydro-1,4-benzoxazepine]
Cc1nc2ccc(-c3ccc4c(c3)CN(c3ncnc5c3CCCC5)CCO4)cc2[nH]1 [Example 46, 7-(2-methyl-1H-benzimidazol-6-yl)-4-(5,6,7,8-tetrahydroquinazolin-4-yl)-2,3,4,5-tetrahydro-1,4-benzoxazepine]
Cc1nc2ccc(-c3ccc4c(c3)CN(c3ncnc5ccc(S(C)(=O)=O)cc35)CCO4)cc2[nH]1 [Example 50, 7-(2-methyl-1H-benzimidazol-6-yl)-4-[6-(methylsulfonyl)quinazolin-4-yl]-2,3,4,5-tetrahydro-1,4-benzoxazepine]
Cc1nc2ccc(-c3ccc4c(c3)CN(c3ncnc5c(C#N)c6n(c35)CCCC6)CCO4)cc2[nH]1 [Example 51, 4-[7-(2-methyl-1H-benzimidazol-6-yl)-2,3-dihydro-1,4-benzoxazepin-4(5H)-yl]-6,7,8,9-tetrahydropyrimido[4,5-b]indolizine-10-carbonitrile]
CCSc1nc2c(c(N3CCOc4ccc(-c5ccc6nc(C)[nH]c6c5)cc4C3)n1)CCC2 [Example 54, 4-[2-(ethylthio)-6,7-dihydro-5H-cyclopenta[d]pyrimidin-4-yl]-7-(2-methyl-1H-benzimidazol-6-yl)-2,3,4,5-tetrahydro-1,4-benzoxazepine]
CCc1ncnc(N2CCOc3ccc(-c4ccc5nc(C)[nH]c5c4)cc3C2)c1C [Example 56, 4-(6-ethyl-5-methylpyrimidin-4-yl)-7-(2-methyl-1H-benzimidazol-6-yl)-2,3,4,5-tetrahydro-1,4-benzoxazepine]

IC50, ≥ 2000 nM:
Cc1nc2ccc(-c3ccc4c(c3)CN(c3ncnc5scc(C)c35)CCO4)cc2[nH]1 [Example 47, 7-(2-methyl-1H-benzimidazol-6-yl)-4-(5-methylthieno[2,3-d]pyrimidin-4-yl)-2,3,4,5-tetrahydro-1,4-benzoxazepine]
